± gives the expanded uncertainty stated by the source.
Experiment: excess molar enthalpy (molar enthalpy of mixing); xn = mol fraction of the nth substance listed
Conditions: 298.15 K, Liquid, Flow calorimetry

COC=O [methyl methanoate] + CC(C)O
Conditions | excess molar enthalpy [kJ/mol]
5000 kPa, x1 = 0.0399 | 0.3546 ± 0.0035
5000 kPa, x1 = 0.0822 | 0.7002 ± 0.0062
5000 kPa, x1 = 0.1235 | 0.9856 ± 0.0084
5000 kPa, x1 = 0.1656 | 1.233 ± 0.01
5000 kPa, x1 = 0.2102 | 1.444 ± 0.012
5000 kPa, x1 = 0.2556 | 1.622 ± 0.013
5000 kPa, x1 = 0.3 | 1.763 ± 0.014
5000 kPa, x1 = 0.3471 | 1.871 ± 0.015
5000 kPa, x1 = 0.3951 | 1.949 ± 0.016
5000 kPa, x1 = 0.444 | 1.99 ± 0.016
5000 kPa, x1 = 0.4938 | 1.998 ± 0.016
5000 kPa, x1 = 0.5447 | 1.978 ± 0.016
5000 kPa, x1 = 0.5965 | 1.923 ± 0.016
5000 kPa, x1 = 0.6494 | 1.823 ± 0.015
5000 kPa, x1 = 0.7055 | 1.67 ± 0.014
5000 kPa, x1 = 0.7606 | 1.488 ± 0.012
5000 kPa, x1 = 0.8191 | 1.227 ± 0.01
5000 kPa, x1 = 0.8766 | 0.9332 ± 0.008
5000 kPa, x1 = 0.9376 | 0.5078 ± 0.0047
10000 kPa, x1 = 0.0398 | 0.359 ± 0.0036
10000 kPa, x1 = 0.082 | 0.7007 ± 0.0062
10000 kPa, x1 = 0.1232 | 0.9855 ± 0.0084
10000 kPa, x1 = 0.1651 | 1.228 ± 0.01
10000 kPa, x1 = 0.2096 | 1.442 ± 0.012
10000 kPa, x1 = 0.2549 | 1.616 ± 0.013
10000 kPa, x1 = 0.2993 | 1.751 ± 0.014
10000 kPa, x1 = 0.3463 | 1.859 ± 0.015
10000 kPa, x1 = 0.3943 | 1.935 ± 0.016
10000 kPa, x1 = 0.4432 | 1.976 ± 0.016
10000 kPa, x1 = 0.493 | 1.986 ± 0.016
10000 kPa, x1 = 0.5439 | 1.968 ± 0.016
10000 kPa, x1 = 0.5957 | 1.906 ± 0.015
10000 kPa, x1 = 0.6487 | 1.809 ± 0.015
10000 kPa, x1 = 0.7048 | 1.658 ± 0.014
10000 kPa, x1 = 0.76 | 1.469 ± 0.012
10000 kPa, x1 = 0.8186 | 1.214 ± 0.01
10000 kPa, x1 = 0.8762 | 0.9053 ± 0.0078
10000 kPa, x1 = 0.9374 | 0.4938 ± 0.0046

COC=O [methyl methanoate] + CCCCO
Conditions | excess molar enthalpy [kJ/mol]
5000 kPa, x1 = 0.0501 | 0.4421 ± 0.0042
5000 kPa, x1 = 0.1 | 0.8313 ± 0.0072
5000 kPa, x1 = 0.1496 | 1.145 ± 0.0096
5000 kPa, x1 = 0.2 | 1.401 ± 0.012
5000 kPa, x1 = 0.2496 | 1.597 ± 0.013
5000 kPa, x1 = 0.2999 | 1.748 ± 0.014
5000 kPa, x1 = 0.3508 | 1.852 ± 0.015
5000 kPa, x1 = 0.4004 | 1.921 ± 0.016
5000 kPa, x1 = 0.4503 | 1.95 ± 0.016
5000 kPa, x1 = 0.5003 | 1.947 ± 0.016
5000 kPa, x1 = 0.5505 | 1.91 ± 0.016
5000 kPa, x1 = 0.6006 | 1.841 ± 0.015
5000 kPa, x1 = 0.6505 | 1.73 ± 0.014
5000 kPa, x1 = 0.7002 | 1.593 ± 0.013
5000 kPa, x1 = 0.7494 | 1.431 ± 0.012
5000 kPa, x1 = 0.8004 | 1.212 ± 0.01
5000 kPa, x1 = 0.8509 | 0.971 ± 0.0083
5000 kPa, x1 = 0.9006 | 0.6776 ± 0.006
5000 kPa, x1 = 0.9495 | 0.345 ± 0.0035
10000 kPa, x1 = 0.05 | 0.4411 ± 0.0042
10000 kPa, x1 = 0.0997 | 0.8281 ± 0.0072
10000 kPa, x1 = 0.1506 | 1.149 ± 0.0097
10000 kPa, x1 = 0.1994 | 1.396 ± 0.012
10000 kPa, x1 = 0.2505 | 1.597 ± 0.013
10000 kPa, x1 = 0.2992 | 1.742 ± 0.014
10000 kPa, x1 = 0.35 | 1.848 ± 0.015
10000 kPa, x1 = 0.3996 | 1.909 ± 0.016
10000 kPa, x1 = 0.4495 | 1.941 ± 0.016
10000 kPa, x1 = 0.4995 | 1.935 ± 0.016
10000 kPa, x1 = 0.5497 | 1.896 ± 0.015
10000 kPa, x1 = 0.5998 | 1.822 ± 0.015
10000 kPa, x1 = 0.6498 | 1.717 ± 0.014
10000 kPa, x1 = 0.6995 | 1.586 ± 0.013
10000 kPa, x1 = 0.7511 | 1.41 ± 0.012
10000 kPa, x1 = 0.7999 | 1.205 ± 0.01
10000 kPa, x1 = 0.8505 | 0.9554 ± 0.0082
10000 kPa, x1 = 0.9003 | 0.6662 ± 0.0059
10000 kPa, x1 = 0.9493 | 0.3316 ± 0.0033

Reference: the NIST ThermoML archive (doi:10.1016/j.tca.2005.11.041)
